Measured values taken from patent US4018786A, “2-Aminothiazolines and a process for preparation thereof” (Centre d'Etudes pour l'Industrie Pharmaceutique, priority 1974, dated 1977).
Counter-ions that a name gives are not always drawn.

Tests used:
[1] = LD50/24 h by the method of Miller & Tainter, intravenous route, mice; settings: mouse, in vivo, read-out: LD50 /24 h/kg of body weight
[2] = LD50/24 hours by the method of Miller & Tainter, intravenous route (derivatives 34 to 38, species not restated); settings: in vivo, read-out: LD50 /24 hours /kg of body weight
[3] = Propyl-thiouracil test (hypocholesterolemic action); format: in vivo, rats
Description: a. Propyl-thiouracil test (RANNEY et Coll. J. Pharmacol. Exper. Therap. 1963, 142, 132-136)
The administration of propyl-thiouracil to adult rats renders them hypercholesterolemic; in effect, the plasmatic cholesterol rate has increased by about 15%. The testing is carried out on two groups of rats, the control group receiving the propyl-thiouracil only whilst the treated group also receives 100 mg/kg of the compounds to be tested, by the oral route.
On the 11th day of the experiment, the blood samples are taken and the β-lipoproteins, the free cholesterol and the total cholesterol measured.
a. Propyl-thiouracil test (Ranney et Coll. J. Pharmacol. Exper. Therap. 1963, 142, 132-136)
This test has shown the clearly favourable action of the derivatives according to the invention, at a dose of […].

[4] = Triton test (hypocholesterolemic action); format: in vivo, rat; settings: for reduction of free cholesterol and total cholesterol levels: 50 mg/kg oral; for reduction of free cholesterol and of total cholesterol: 100 mg/kg oral, rat, 18 hours after Triton
Description: The intravenous injection of Triton W-R 1339 (an alkylaryl polyetheralcohol sold by Rohm and Haas) enables one to artifically increase, in the rat, certain lipidic fractions of serum and thus to evalute the hypocholesterolemic action of the compounds of the invention. […]
Eighteen hours later a blood sample is taken and the β-lipoproteins, the free cholesterol and the cholesterol are determined.
This test, which enables one to evaluate the hypocholesterolemic action of the derivatives to be tested, on serum levels of certain lipid fractions, has shown the remarkable effect of the compounds according to the invention.

[5] = tested on: carrageenin-induced oedema; assay: Localised carrageenin-induced oedema method (anti-inflammatory action); format: in vivo, rat; settings: for reduction of the inflammatory reaction, 1st hour / reduction of the inflammatory reaction, 2nd hour / reduction of the inflammatory reaction, 3rd hour / reduction of the inflammatory reaction, 4th hour / reduction of the inflammatory reaction, 5th hour: 50 mg/kg oral; for percentage of anti-inflammatory activity, First Hour / percentage of anti-inflammatory activity, Second Hour / percentage of anti-inflammatory activity, Third Hour / percentage of anti-inflammatory activity, Fifth Hour: 100 mg/kg oral per administration, rat; for percentage of anti-inflammatory activity, First Hour: 1 hour after carrageenin; for percentage of anti-inflammatory activity, Second Hour: 2 hours after carrageenin; for percentage of anti-inflammatory activity, Third Hour: 3 hours after carrageenin; for percentage of anti-inflammatory activity, Fifth Hour: 5 hours after carrageenin
Description: a. Localised carrageenin-induced oedema method
A 1% solution of carrageenin (0.1 ml) is injected into the metatarsal flexor muscles of the right hand rear paw of the rat at time "0".
The animals of the treated group also receive, by the oral route, 100 mg/kg of the compound to be tested, respectively 1 hour before and at the same time as the injection of the phlogogenic agent, then 1 hour and 21/2 hours after. The measurements made with the aid of a micrometer at the time "0" and 1 hour, 2 hours, 3 hours and 5 hours after the administration of the carrageenin, enable one to determine, in relation to time, the percentage of anti-inflammatory activity in relation to the control group.
a. method of localised carrageenin-induced oedema
The oral administration of […] of the derivatives to be tested produces a clear reduction of the inflammatory reaction provoked.

[6] = tested on: ovalbumin-induced oedema; assay: Generalised ovalbumin-induced oedema method (anti-inflammatory action); format: in vivo, rats; settings: for percentage of reduction of oedematic reaction, 1st hour / percentage of reduction of oedematic reaction, 2nd hour: 50 mg/kg oral; for percentage of decrease of the oedematic reaction, Second Hour / percentage of decrease of the oedematic reaction, Third Hour: 100 mg oral, rats
Description: b. Generalised ovalbumin-induced oedema method
A simultaneous intraperitoneal injection of 1 ml of ovalbumin and of 0.5 ml of an aqueous solution of Evans Blue at 1 ml per thousand by weight is administered to rats.
For comparative purposes, 100 mg of the compound to be tested is administered orally to the animals of the group to be treated, 1 hour before and at the same time as the ovalbumin. The intensity of the phenomenon thus provoked in noted by a FIG. 1 to 5 according to the intensity of the inflammatory syndrome.
Thus one determines the average of the oedematic intensity and the percentage of decrease of the oedematic reaction in relation to the control animals.
b. method of generalised ovalbumin-induced oedema
The percentages of reduction of oedematic reaction, in the test animals, in subjects treated by the oral route by the administration of […] of the compound to be tested show the clear anti-inflammatory action of the compounds according to the invention.

[7] = 100 mg/kg oral, rats, 11th day, control 0.20 g/l
[8] = 100 mg/kg oral, rats, 11th day, control 0.86 g/l

| Structure (SMILES) | LD50 at 24 h [1] | LD50 at 24 h [2] | Free cholesterol ([3]; 50 mg/kg, control 0.25) | Total cholesterol ([3]; 50 mg/kg, control 0.89) | reduction of free cholesterol and total cholesterol levels [4] | reduction of the inflammatory reaction, 1st hour [5] | reduction of the inflammatory reaction, 2nd hour [5] | reduction of the inflammatory reaction, 3rd hour [5] | reduction of the inflammatory reaction, 4th hour [5] | reduction of the inflammatory reaction, 5th hour [5] | percentage of reduction of oedematic reaction, 1st hour [6] | percentage of reduction of oedematic reaction, 2nd hour [6] | also measured |
| --- | --- | --- | --- | --- | --- | --- | --- | --- | --- | --- | --- | --- | --- |
| CCN(CC)CC=C1CN=C(NC(C)(C)CC(C)(C)C)S1 [Derivative No. 18, 5-(β-diethylaminoethylidene) 2-(1,1,3,3-tetramethyl-butyl-amino) Δ^2-thiazoline] | 45 mg/kg | – | – | – | – | – | – | – | – | – | – | – | – |
| Clc1ccccc1N1CCN(CC=C2CN=C(NC3CCCCC3)S2)CC1 [Derivative No. 37, 5-[4-β-(orthochlorophenyl)piperazinoethylidene]2-cyclohexylamino Δ^2-thiazoline] | – | 57 mg/kg | 0.10 | 0.60 | ~41% | 38 | 43 | 48 | 52 | 57 | 60% | 68% | – |
| CCN(CC)CCC1CN=C(NC2CCCCC2)S1 (stereo not drawn) [Derivative No. 3, 2-cyclohexlamino 5-β-diethylaminoethyl Δ^2-thiazoline] | – | – | – | – | – | – | – | – | – | – | – | – | percentage of anti-inflammatory activity, First Hour [5]: 37%; percentage of anti-inflammatory activity, Second Hour [5]: 39%; percentage of anti-inflammatory activity, Third Hour [5]: 46%; percentage of anti-inflammatory activity, Fifth Hour [5]: 48%; percentage of decrease of the oedematic reaction, Second Hour [6]: 54%; percentage of decrease of the oedematic reaction, Third Hour [6]: 60% |
| Clc1ccc(N2CCN(CC=C3CN=C(NC4CCCCC4)S3)CC2)cc1 [Derivative No. 34, 5-[4-β-(parachlorophenyl)piperazinoethylidene] 2-cyclohexylamino Δ^2-thiazoline] | – | 35 mg/kg | 0.13 | 0.55 | ~34% | 40 | 44 | 50 | 53 | 55 | 58% | 62% | – |
| CCN(CC)CC=C1CN=C(NC)S1 [Derivative No. 21, 5-(β-diethylaminoethylidene) 2-methylamino Δ^2-thiazoline oxalate] | 92 mg/kg | – | – | – | – | – | – | – | – | – | – | – | – |
| CCN(CC)CC=C1CN=C(NCC(O)c2ccccc2)S1 (stereo not drawn) [Derivative No. 4, 2-β-hydroxyphenethylamino 5-(N-diethylaminoethylidene) Δ^2-thiazoline] | – | – | – | – | – | – | – | – | – | – | – | – | percentage of anti-inflammatory activity, First Hour [5]: 39%; percentage of anti-inflammatory activity, Second Hour [5]: 40%; percentage of anti-inflammatory activity, Third Hour [5]: 49%; percentage of anti-inflammatory activity, Fifth Hour [5]: 53%; percentage of decrease of the oedematic reaction, Second Hour [6]: 59%; percentage of decrease of the oedematic reaction, Third Hour [6]: 65% |
| COc1ccc(N2CCN(CC=C3CN=C(NC4CCCCC4)S3)CC2)cc1 [Derivative No. 38, 2-cyclohexylamino 5-[4-β-(paramethoxyphenyl)piperazinoethylidene] Δ^2-thiazoline] | – | 52 mg/kg | 0.09 g/L | 0.58 | ~44% | 49 | 53 | 56 | 60 | 61 | 64% | 70% | – |
| CCN(CC)CC=C1CN=C(N2CCOCC2)S1 [Derivative No. 14, 5-β-diethylaminoethylidene 2-morpholino Δ^2-thiazoline oxalate] | 105 mg/kg | – | – | – | – | – | – | – | – | – | – | – | – |
| CCN(CC)CC=C1CN=C(N(CC)C2CCCCC2)S1 [Derivative No. 10, 5-(β-diethylaminoethylidene) 2-N-ethyl N-cyclohexylamino) Δ^2-thiazoline oxalate] | – | – | – | – | – | – | – | – | – | – | – | – | percentage of anti-inflammatory activity, First Hour [5]: 44%; percentage of anti-inflammatory activity, Second Hour [5]: 47%; percentage of anti-inflammatory activity, Third Hour [5]: 52%; percentage of anti-inflammatory activity, Fifth Hour [5]: 56%; percentage of decrease of the oedematic reaction, Second Hour [6]: 57%; percentage of decrease of the oedematic reaction, Third Hour [6]: 64% |
| CCN(CC)CC=C1CN=C(N2CCN(C)CC2)S1 [Derivative No. 12, 5-(2-diethylaminoethylidene) 2-(4-methyl 1-piperazinyl) Δ^2-thiazoline tetrahydrochloride] | 90 mg/kg | – | – | – | – | – | – | – | – | – | – | – | Free cholesterol [3, 7]: 0.15 g/L; Total cholesterol [3, 8]: 0.61 g/L; reduction of free cholesterol and of total cholesterol [4]: ~26% |
| CCN(CC)CCc1cnc(N(C)C2CCCCC2)s1 [Derivative No. 22, 5-β-diethylaminoethyl 2-(N-methyl N-cyclohexylamino)-thiazole dioxalate] | – | – | – | – | – | – | – | – | – | – | – | – | percentage of anti-inflammatory activity, First Hour [5]: 42%; percentage of anti-inflammatory activity, Second Hour [5]: 46%; percentage of anti-inflammatory activity, Third Hour [5]: 54%; percentage of anti-inflammatory activity, Fifth Hour [5]: 56%; percentage of decrease of the oedematic reaction, Second Hour [6]: 52%; percentage of decrease of the oedematic reaction, Third Hour [6]: 60% |
| CCCCNc1ncc(CCN(CC)CC)s1 [Derivative No. 9, 2-butylamino 5-β-diethylaminoethyl thiazole dihydrochloride] | – | – | – | – | – | – | – | – | – | – | – | – | Free cholesterol [3, 7]: 0.15 g/L; Total cholesterol [3, 8]: 0.58 g/L; reduction of free cholesterol and of total cholesterol [4]: ~24% |
| CCN(CC)CC=C1CN=C(N(CC)CC)S1 [Derivative No. 15, 2-diethylamino 5-(2-diethylaminoethylidene) Δ^2-thiazoline dioxalate] | – | – | – | – | – | – | – | – | – | – | – | – | Free cholesterol [3, 7]: 0.12 g/L; Total cholesterol [3, 8]: 0.58 g/L; reduction of free cholesterol and of total cholesterol [4]: ~22% |
| CCN(CC)CC=C1CN=C(NC2CCCCC2)S1 [Derivative No. 1, 2-cyclohexylamino 5-β-diethylaminoethylidene Δ^2-thiazoline] | 42 mg/kg | – | – | – | – | – | – | – | – | – | – | – | Free cholesterol [3, 7]: 0.14 g/L; Total cholesterol [3, 8]: 0.60 g/L; reduction of free cholesterol and of total cholesterol [4]: ~28% |
| FC(F)(F)c1cccc(N2CCN(CC=C3CN=C(NC4CCCCC4)S3)CC2)c1 [Derivative No. 36] | – | 65 mg/kg | 0.13 | 0.63 | ~27% | 46 | 50 | 59 | 61 | 62 | 55% | 61% | – |
| C(CN1CCN(c2ccccc2)CC1)=C1CN=C(NC2CCCCC2)S1 [Derivative No. 35, 2-cyclohexylamino 5-[4-β-(phenyl)piperazinoethylidene] Δ^2-thiazoline] | – | 48 mg/kg | 0.11 | 0.61 | ~29% | 45 | 46 | 55 | 57 | 58 | 62% | 65% | – |
